Experimental data published in PubChem BioAssay (NCI).
“And” between values parts separate entries of the source, which are not always exact repeats. Equal entries are not always repeated.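 The compound was tested at five concentrations on cells cultured in 96-well plates, with a 48-hour exposure period. At the GI50, growth is halved. At the TGI there is no net growth.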

The compounds below were run on K-562 leukemia (assay: DTP human tumour cell line panel, 48 h).

SMILES | GI50 [µM] | TGI [µM]
COCCOc1ccc(-c2nc3ccc(-c4nc5ccc(N6CCN(C)CC6)cc5[nH]4)cc3[nH]2)cc1 | 0.911 | > 100
N[C@@H]1CCCC[C@@H]1N.O=P([O-])([O-])CN(CCN(CP(=O)([O-])[O-])CP(=O)([O-])[O-])CP(=O)([O-])[O-].[Pt+2] | > 25 | > 25
COc1ccc(OC)c(N2CC(N)C2=O)c1 (stereo unspecified) | – | > 100
O=C(/C=C/c1ccc([N+](=O)[O-])cc1)c1ccc(NCc2nc3ccccc3[nH]2)cc1 | – | 7.03
Cc1cccc(C)c1NC(=O)CCCC(=O)C1/C(=N/NC(=O)CC#N)CCC/C1=N\NC(=O)CC#N (stereo unspecified) | – | > 100
O=c1ccc2ccccc2cc1[O-].O=c1ccc2ccccc2cc1[O-].[O]=[U+2]=[O] | 6.75 | > 100
Cc1ccc(-n2c3nc(=O)[nH]c(=O)c-3cc3cc([N+](=O)[O-])ccc32)cc1 | 33.4 | > 100
COC(=O)C(CCCN1C(=O)c2ccccc2C1=O)C(=O)OC | – | > 100
COc1nc(NC2OC(COC(C)=O)C(OC(C)=O)C(OC(C)=O)C2OC(C)=O)c2c(OC(C)=O)cc(=O)oc2n1 (stereo unspecified) | – | > 100
CC(C)(C)c1cc2c(O)c3cccc4c(=O)c5cccc6c5-c(c34)c2c(c1)c6=O | – | > 100
Nc1cc(NN=C(c2ccc(O)cc2)c2ccc(O)cc2)c([N+](=O)[O-])cc1[N+](=O)[O-] | 3.62 | 31.7
O=C1C=CC(=O)c2nc3c(cc21)CCC3 | – | 39.3
O=S(=O)(N/N=C/c1cccc(/C=N/NS(=O)(=O)c2ccccc2)c1)c1ccccc1 | – | > 100
CCCCN(CCCC)C(=O)C(=O)C(C(=O)c1ccc(OC)cc1)c1ccc(OC)cc1 (stereo unspecified) | – | > 100
C=C(C)CCOC(c1ccccc1)(c1ccccc1)c1ccccc1 | – | > 100
COc1ccc(C)cc1-c1cc(Sc2ccccc2)c(-c2cc(C)ccc2OC)o1 | – | > 31.6
Cn1ccc2c3c(Oc4ccc(NC(N)=O)cc4)ccnc3ccc21 | > 100 | > 100
CC(=O)O/N=C(/C)c1ccccc1O | – | > 100
CC(=O)OCCOCNC(=S)N/N=C(\C)c1cnccn1 | – | > 100
O=C(Nc1ccccc1-c1nn(C(=S)Nc2ccccc2)c(=S)n(C(=S)Nc2ccccc2)c1=O)C(F)(F)F | – | > 95.6
O=c1c(-c2ccccc2)c2oc(c1-c1ccccc1)CSCc1cccc(c1)CSC2 | – | > 100
CN(C)CCn1c2c3ccccc3ccc2c2oc(=O)c3ccccc3c21 | – | > 100

These compounds were tested on DU-145 prostate (assay: DTP human tumour cell line panel, 48 h).

SMILES | GI50 | TGI
O=C(/C(=C/c1ccc([N+](=O)[O-])cc1)SCc1ccccc1)c1ccc(Cl)cc1 | 3.6 µM | 13.8 µM
CCCCCCCCCCCCCCCC[N+](C)(C)Cc1ccccc1 | 1.7 µM and 1.62 µM | 3.22 µM and 3.12 µM
O=C(O)c1ccc2c(c1C(=O)O)C(=O)OC2(c1ccc(O)cc1)c1ccc(O)cc1 | – | > 100 µM
N#Cc1c[nH]n2c(N=Nc3ccc(Cl)cc3)c(O)nc12 | 42.6 µM | > 100 µM
O=S(=O)(c1ccccc1)N1CCN(S(=O)(=O)c2ccccc2)c2ccccc21 | – | > 100 µM
CCOC(=O)C1=C(C)N(c2ccc(F)cc2F)[C@]2(C#N)C(O)=C(Cl)C(Cl)=C(O)[C@]12C#N | > 100 µM | > 100 µM
Cc1csc(-c2nnc(Nc3ccc(Oc4ncccc4-c4ccnc(N)n4)cc3)c3ccccc23)c1 | 4.61 µM | > 100 µM
COc1cc(C2CC(C)(O)Oc3cc4c(cc32)OCO4)cc(OC)c1OC (stereo unspecified) | – | > 100 µM
CC1SC(c2ccc(F)cc2)N(NC(=O)C(O)c2ccccc2)C1=O (stereo unspecified) | > 100 µM | > 100 µM
COCCOc1ccc(-c2nc3ccc(-c4nc5ccc(N6CCN(C)CC6)cc5[nH]4)cc3[nH]2)cc1 | 1.13 µM | 9.59 µM
Cc1ccc(-n2c3nc(=O)[nH]c(=O)c-3cc3cc([N+](=O)[O-])ccc32)cc1 | 22.9 µM | 55.1 µM
Nc1cc(NN=C(c2ccc(O)cc2)c2ccc(O)cc2)c([N+](=O)[O-])cc1[N+](=O)[O-] | 1.64 µM | 2.99 µM
Cn1ccc2c3c(Oc4ccc(NC(N)=O)cc4)ccnc3ccc21 | > 100 µM | > 100 µM
